Tests used:
[1] = target: NAMPT (Homo sapiens, UniProt P43490); assay: Assay for in vitro NAMPT activity via NMN assessment; type: biochemical; details: read-out: A: NAMPT enzyme inhibitory activity, IC50
Protocol: The following were added to a well: 20 μL 2× test compound in Basic Buffer (0.02% BSA, 2 mM DTT, 12 mM MgCl2, 50 mM Tris pH7.5); 10 μL 8 μg/mL NAMPT, and 200 μM PRPP working solution (or PRPP working solution to background wells). 10 μL 100 μM NAM working solution was added to start the reaction. The plate was sealed and incubated for 45 minutes at 37° C. After incubation, 10 μL 20% acetophenone in DMSO, 10 μL 2N KOH, and 20 μL 88% formic acid were added. The plate was sealed and incubated for 30 minutes at 37° C. After incubation, fluorescence at Ex/Em 387/441 was read.
In each table header, A: NAMPT enzyme inhibitory activity, IC50 (μM); B: Cellular NAD inhibitory activity, IC50 (μM); and C: change in NAD levels in response to test compound, shown as % of NAD activity in the absence of test compound. […] A percentage of 100 percent would indicate no increase or decrease in NAD levels as compared to that measured for untreated control cells, while a percentage of 50 percent would indicate a decrease in NAD levels of 50 percent as compared to that measured for untreated control cells.

[2] = system: A431 cells; assay: Assay for total NADH and NAD+ measurements in cells; type: cell-based; details: Homo sapiens, A-431, read-out: B: Cellular NAD inhibitory activity, IC50
How it was run: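 Cells (2,000/well) treated with compounds overnight, washed with PBS containing 1 mM CaCl2 and MgCl2, lysed with 0.4% DTAB in phosphate buffer pH 8.0. Reaction mix added and fluorescence (Ex/Em 530/585) followed over 8 cycles every 92 seconds; NAD given as % of untreated control.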

NAMPT, sequence (P43490 whole entry, species assumed): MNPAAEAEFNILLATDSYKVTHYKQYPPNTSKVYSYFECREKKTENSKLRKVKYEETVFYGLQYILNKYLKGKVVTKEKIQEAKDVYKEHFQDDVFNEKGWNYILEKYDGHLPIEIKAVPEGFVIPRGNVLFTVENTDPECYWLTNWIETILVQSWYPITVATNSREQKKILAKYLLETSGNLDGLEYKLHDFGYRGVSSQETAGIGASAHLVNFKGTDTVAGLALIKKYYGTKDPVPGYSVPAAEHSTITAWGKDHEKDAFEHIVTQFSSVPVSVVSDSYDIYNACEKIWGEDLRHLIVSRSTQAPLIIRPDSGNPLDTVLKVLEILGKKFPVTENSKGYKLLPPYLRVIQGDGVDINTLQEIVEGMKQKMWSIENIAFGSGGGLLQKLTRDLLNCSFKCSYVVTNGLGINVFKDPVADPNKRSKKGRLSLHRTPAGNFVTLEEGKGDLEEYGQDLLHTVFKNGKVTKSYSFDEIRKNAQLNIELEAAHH

Row | Compound | IC50 [1] | IC50 [2]
1 | O=C(NCc1cccnc1)c1ccc2nc(-c3ccccc3)c(-c3ccccc3)nc2c1 [BC18405] | < 1000 nM | < 1000 nM
2 | O=C(NCCc1cccnc1)c1cnc2nc(-c3ccc(F)cc3)c(-c3ccc(F)cc3)nc2c1 [BC20205] | < 1000 nM | < 1000 nM
3 | O=C(NCc1cccnc1)Nc1cnc2nc(-c3ccc(F)cc3)c(-c3ccc(F)cc3)nc2c1 [BC20213] | < 1000 nM | < 1000 nM
4 | O=C(NCCc1cccnc1)Nc1ccc2nc(-c3ccc(F)cc3)c(-c3ccc(F)cc3)nc2c1 [BC20216] | < 1000 nM | < 1000 nM
5 | O=C(Nc1cccnc1)Nc1ccc2nc(-c3ccc(F)cc3)c(-c3ccc(F)cc3)nc2c1 [BC20224] | < 1000 nM | < 1000 nM
6 | O=C(NCc1ccc2nc(-c3ccc(F)cc3)c(-c3ccc(F)cc3)nc2c1)Nc1cccnc1 [BC20235] | < 1000 nM | < 1000 nM
7 | O=C(Nc1cccnc1)Nc1cnc2nc(-c3ccc(F)cc3)c(-c3ccc(F)cc3)nc2c1 [BC20254] | < 1000 nM | < 1000 nM
8 | O=C(NCCc1cccnc1)Nc1cnc2nc(-c3ccc(F)cc3)c(-c3ccc(F)cc3)nc2c1 [BC20268] | < 1000 nM | < 1000 nM
9 | C#CCNC(=O)Nc1cnc2nc(-c3ccc(F)cc3)c(-c3ccc(F)cc3)nc2c1 [BC20297] | ≥ 25000 nM | –
10 | COCCNC(=O)Nc1cnc2nc(-c3ccc(F)cc3)c(-c3ccc(F)cc3)nc2c1 [BC20298] | ≥ 25000 nM | –
11 | CC(=O)N1CCC[C@H](CNC(=O)Nc2ccc3nc(-c4ccc(F)cc4)c(-c4ccc(F)cc4)nc3c2)C1 [BC20299] | 1000 to 25000 nM | –
12 | CS(=O)(=O)N1CCCC(CNC(=O)Nc2ccc3nc(-c4ccc(F)cc4)c(-c4ccc(F)cc4)nc3c2)C1 (stereo not drawn) [BC20300] | 1000 to 25000 nM | –
13 | CC(=O)N1CCCC(CNC(=O)NCc2ccc3nc(-c4ccc(F)cc4)c(-c4ccc(F)cc4)nc3c2)C1 (stereo not drawn) [BC20301] | 1000 to 25000 nM | –
14 | Fc1ccc(-c2nc3cc4[nH]c(=S)n(CCc5cccnc5)c4nc3nc2-c2ccc(F)cc2)cc1 [BC20305] | ≥ 25000 nM | –
15 | CC(=O)NCc1cccc(-c2nc3ccc(C(=O)N4CCN(C)CC4)cc3nc2-c2ccc(F)cc2)c1 [BC20306] | ≥ 25000 nM | –
16 | CN(C)Cc1cccc(-c2nc3ccc(C(=O)N4CCN(C)CC4)cc3nc2-c2ccc(F)cc2)c1 [BC20307] | ≥ 25000 nM | –
17 | Fc1ccc(-c2nc3cc(NC(=S)NCCc4cccnc4)cnc3nc2-c2ccc(F)cc2)cc1 [BC20309] | < 1000 nM | < 1000 nM
18 | O=C(NCCc1cccnc1)Nc1ccc2nc(-c3ccc(F)cc3)c(-c3ccc(F)cc3)nc2n1 [BC20310] | < 1000 nM | –
19 | O=C(NCCc1cccnc1)Nc1cnc2nc(-c3ccc(Cl)cc3)c(-c3ccc(Cl)cc3)nc2c1 [BC20311] | < 1000 nM | < 1000 nM

Results, then the compound that gave them:

Row | IC50 [1] | IC50 [2] | Compound
20 | ≥ 25000 nM | – | CN(C)CCNC(=O)Nc1cnc2nc(-c3ccc(F)cc3)c(-c3ccc(F)cc3)nc2c1 [BC20312]
21 | < 1000 nM | < 1000 nM | O=C(NCCc1cccnn1)Nc1cnc2nc(-c3ccc(F)cc3)c(-c3ccc(F)cc3)nc2c1 [BC20314]
22 | < 1000 nM | < 1000 nM | O=C(NCCc1cncs1)Nc1cnc2nc(-c3ccc(F)cc3)c(-c3ccc(F)cc3)nc2c1 [BC20315]
23 | < 1000 nM | < 1000 nM | Nc1ccc(CNC(=O)Nc2cnc3nc(-c4ccc(F)cc4)c(-c4ccc(F)cc4)nc3c2)cn1 [BC20316]
24 | < 1000 nM | < 1000 nM | O=C(Nc1cnc2nc(-c3ccc(F)cc3)c(-c3ccc(F)cc3)nc2c1)N1Cc2ccccc2C1 [BC20317]
25 | < 1000 nM | < 1000 nM | O=C(NCCc1cn[nH]c1)Nc1cnc2nc(-c3ccc(F)cc3)c(-c3ccc(F)cc3)nc2c1 [BC20318]
26 | < 1000 nM | < 1000 nM | O=C(NCCc1c[nH]cn1)Nc1cnc2nc(-c3ccc(F)cc3)c(-c3ccc(F)cc3)nc2c1 [BC20319]
27 | < 1000 nM | < 1000 nM | Nc1ccc(CCNC(=O)Nc2cnc3nc(-c4ccc(F)cc4)c(-c4ccc(F)cc4)nc3c2)cn1 [BC20320]
28 | < 1000 nM | < 1000 nM | O=C(Nc1cnc2nc(-c3ccc(F)cc3)c(-c3ccc(F)cc3)nc2c1)N1Cc2cccnc2C1 [BC20321]
29 | < 1000 nM | < 1000 nM | Fc1ccc(-c2nc3ccc(NC(=S)N4Cc5ccccc5C4)cc3nc2-c2ccc(F)cc2)cc1 [BC20322]
30 | < 1000 nM | < 1000 nM | Nc1ccc(CNC(=S)Nc2ccc3nc(-c4ccc(F)cc4)c(-c4ccc(F)cc4)nc3c2)cn1 [BC20323]
31 | < 1000 nM | < 1000 nM | Nc1ccc(CNC(=S)Nc2cnc3nc(-c4ccc(F)cc4)c(-c4ccc(F)cc4)nc3c2)cn1 [BC20324]
32 | < 1000 nM | < 1000 nM | O=C(NCc1cnc2nc(-c3ccc(F)cc3)c(-c3ccc(F)cc3)nc2c1)Nc1cccnc1 [BC20325]
33 | 1000 to 25000 nM | 1000 to 25000 nM | O=C(NCc1cccnc1)NCc1cnc2nc(-c3ccc(F)cc3)c(-c3ccc(F)cc3)nc2c1 [BC20326]
34 | < 1000 nM | < 1000 nM | O=C(NCc1cnc2nc(-c3ccc(F)cc3)c(-c3ccc(F)cc3)nc2c1)N1Cc2ccncc2C1 [BC20327]
35 | < 1000 nM | < 1000 nM | O=C(NCc1cnc2nc(-c3ccc(F)cc3)c(-c3ccc(F)cc3)nc2c1)c1cc2ccncc2o1 [BC20328]
36 | ≥ 25000 nM | 1000 to 25000 nM | O=C(NCc1cnc2nc(-c3ccc(F)cc3)c(-c3ccc(F)cc3)nc2c1)c1cc2ccccc2s1 [BC20329]
37 | < 1000 nM | < 1000 nM | O=C(Nc1ccc2nc(-c3ccc(F)cc3)c(-c3ccc(F)cc3)nc2c1)N1Cc2ccccc2C1 [BC20330]
38 | < 1000 nM | < 1000 nM | Nc1ccc(CNC(=O)Nc2ccc3nc(-c4ccc(F)cc4)c(-c4ccc(F)cc4)nc3c2)cn1 [BC20331]
39 | < 1000 nM | < 1000 nM | O=C(NCc1cnc2nc(-c3ccc(F)cc3)c(-c3ccc(F)cc3)nc2c1)N1Cc2cccnc2C1 [BC20332]
40 | < 1000 nM | < 1000 nM | O=C(Nc1ccc2nc(-c3ccc(F)cc3)c(-c3ccc(F)cc3)nc2c1)N1Cc2cccnc2C1 [BC20333]
41 | < 1000 nM | < 1000 nM | O=C(Nc1cnc2nc(-c3ccc(F)cc3)c(-c3ccc(F)cc3)nc2c1)N1Cc2ccncc2C1 [BC20334]

— patent US20230321086A1, “METHODS AND MATERIALS FOR INHIBITING NICOTINAMIDE PHOSPHORIBOSYLTRANSFERASE ACTIVITY” (Universiy of Pittsburgh - Of the Commonwealth System of …, priority 2020, published 2023)
